Measurements reported in publication PMC12079444, “Antagonist Targeting the Species‐Specific Fatty Acid Dehydrogenase/Isomerase FabX for Anti‐H. pylori Infection” (Advanced Science, 2025).
Values after ≈ are worked out from the molar mass of the structure shown.

Experiments:
[1] = biological target: T1, FabX (Helicobacter pylori, UniProt O25465); test: X-ray crystal structure, […] Å; assay type: binding; details: bound cofactor in the complex with FBX-1991
T1 construct: gene HP_0773; recombinant from pQE2 vector in E. coli BL21(DE3) Rosetta, Ni-NTA, HiTrap-SP, Superdex75; FMN and [4Fe-4S] cofactors
T1 sequence (O25465 1-363): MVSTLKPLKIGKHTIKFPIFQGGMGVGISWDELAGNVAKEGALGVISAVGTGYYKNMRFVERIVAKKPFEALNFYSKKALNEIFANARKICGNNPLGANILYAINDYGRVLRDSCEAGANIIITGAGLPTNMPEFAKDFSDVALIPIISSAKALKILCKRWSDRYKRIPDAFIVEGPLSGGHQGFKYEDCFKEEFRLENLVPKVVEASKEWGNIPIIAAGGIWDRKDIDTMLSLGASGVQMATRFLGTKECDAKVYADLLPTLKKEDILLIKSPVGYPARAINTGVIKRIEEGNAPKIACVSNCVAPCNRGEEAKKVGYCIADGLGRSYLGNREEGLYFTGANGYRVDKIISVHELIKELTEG

[2] = biological target: T1, FabX; test: biochemical; set-up: FabX inhibition in multienzymatic cascade coupled to FabI, NADH consumption read-out; details: read-out: % inhibition
Text: To discover small molecule inhibitors targeting FabX, we performed protein thermal shift assay (PTSA) based high‐throughput screening against an in‐house chemical library of 11000 small molecule compounds, and established a multienzymatic cascade reaction system by incorporating the enoyl acyl carrier protein reductase FabI from H. pylori into the hit validation system, where FabI catalyzes the reduction of FabX catalytic product enoyl‐ACP in the fourth step of the elongation cycle, accompanying the elimination of NADH (Figure 2A,B). […] The subcloning, expression, and purification of FabX, FabI, and ACP from H. pylori, FabK from S. pneumoniae, and FabA from E. coli were described previously.^[ [19] ^] Briefly, fabX, fabI, fabK, and fabA genes were subcloned to pQE2 vector, while the Acp gene was subcloned to pET32a vector, respectively. The proteins were expressed in BL21(DE3) Rosetta cells, purified by using Ni‐NTA affinity column, HiTrap‐SP column, GE HiLoad 16/600 Superdex75 prep grade gel‐filtration column. The peaks from the gel‐filtration column were further pooled, concentrated, and the final concentration of the proteins was quantified by the Bradford reagent purchased from Bio‐Rad.

[3] = biological target: T1, FabX; test: FabX-FabI coupled assay, NADH absorbance […] nm; assay type: biochemical
[4] = system: T2, Helicobacter pylori G27; test: microbe, parasite or virus in culture; details: G27, read-out: MIC
T2 construct: G27
Experimental: (§1) The sensitivity of H. pylori strains to various compounds was assessed by determining the MIC and evaluating the growth of the strains on the drug‐containing agar media. The MIC was measured using the broth microdilution assay as described previously.^[ [27] ^] Twofold serial dilutions of the test compounds were prepared using BHI broth supplemented with 10% FCS in 96‐well microtiter plates. Diluted H. pylori cultures, adjusted to a final concentration of 5 × 10^5 CFU mL^−1, were then added to each well. The cultures were incubated for 48–72 h in a microaerobic environment at 37 °C. The MIC was determined by visual inspection. H. pylori strains used in this study were cultured on brain heart infusion (BHI) broth (Oxoid, UK) or Columbia blood agar medium (Oxoid, UK) supplemented with 10% fetal calf serum (FCS). The cultures were incubated at 37 °C for 48–72 h under microaerobic environments in a double‐gas CO2 incubator (Binder, Germany). The wild‐type strains G27 and NSH57 used in this study were kindly provided by Prof. Nina R. Salama from the Fred Hutchinson Cancer Research Center (USA). Three clinical H. pylori strains (BYES129, BY924, and JIGC0009) were isolated from biopsy samples from three patients with gastritis or gastric cancer using standard protocols. Strains BHKS551 (NSH57 IR0203::fabA ΔfabX) and BHKS568 (NSH57 IR0203::fabX ΔfabX) were described previously.^[ [19] ^] The following 15 reference strains of different species were also used: Escherichia coli ATCC 25922, Klebsiella pneumoniae ATCC 35657, Pseudomonas aeruginosa PAO1, Salmonella enterica serovar Typhimurium ATCC 14028, Shigella dysenteriae Sd197, Acinetobacter baumannii ATCC 19606, Proteus mirabilis ATCC 29906, Enterobacter cloacae ATCC 13047, Stenotrophomonas maltophilia ATCC 51331, Bacillus subtilis 168, Enterococcus faecium ATCC 19434, Staphylococcus aureus ATCC 25923, Staphylococcus haemolyticus ATCC 29970, Listeria monocytogenes EGDe, and Morganella morganii ATCC 25830. These non‐Helicobacter bacterial strains were cultured as described previously.^[ [25] ^] We evaluated the antibacterial activities of selected compounds (IC 50 < 1 × 10^−6 M) against several H. pylori strains (Table S3∖, Supporting Information), particularly against strains BHKS551 and BHKS211 (the FabX overexpressed strain, hereinafter referred to as FabX^OE) to validate the on‐target effect in vivo. Note that FabX is overproduced 3.32‐fold in strain BHKS211 compared to the control strain BHKS210 carrying the empty vector (Figure S3, Supporting Information). […] This could be due to the fact that the carboxyl group of 8j readily deprotonates and acquires negative charge at physiological pH, which reduces its lipophilicity and prevents it from permeating the bacterial cell membrane. To address this issue, we employed a prodrug strategy and synthesized esters from 8j by attaching it to lipophilic alcohols (8p‐8u) or a lipophilic cation 6‐hydroxyhexyltriphenylphosphonium bromide (8v) (Figure 3). […] Compounds 8p‐8s were synthesized as shown in Scheme 1, while compounds 8t‐8v were synthesized as described in Scheme 3 . 8q was hydrolyzed with NaOH to yield 8j, which was subsequently reacted with various alcohols by Steglich esterification to produce compounds 8t‐8v.

[5] = system: T3, Helicobacter pylori BHKS 210; test: microbe, parasite or virus in culture; details: BHKS210, read-out: MIC
T3 construct: BHKS210 (NSH57/empty vector pTM117) wild-type NSH57 with empty vector
Experimental: as §1

[6] = system: T4, Helicobacter pylori Hp129; test: microbe, parasite or virus in culture; details: HP129, read-out: MIC
T4 construct: Hp129
Experimental: as §1

[7] = system: T5, Helicobacter pylori BHKS 568; test: microbe, parasite or virus in culture; details: BHKS568, read-out: MIC
T5 construct: BHKS568 (NSH57 IR0203::fabX ΔfabX) native fabX relocated to IR0203
Experimental: as §1

[8] = biological target: T1, FabX; test: isothermal titration calorimetry; assay type: binding
[9] = biological target: T1, FabX; test: FabX-FabI coupled assay, NADH absorbance […] nm; assay type: biochemical; details: read-out: FabX enzymatic activity / 10 × 10^-6 M [%]

Cc1cc2nc3c(=O)[nH]c(=O)nc-3n(C[C@H](O)[C@H](O)[C@H](O)COP(=O)(O)O)c2cc1C [FMN]
X-ray crystal structure, 2.00 Å [1]: binds in the region between the FMN cofactor and the catalytic tunnel of FabX

O=C(O)c1cccc(NS(=O)(=O)c2cccnc2Nc2ccc(Cl)cc2Cl)c1 [8j, FBX-1872]
inhibition at 1 µM [2]: 65% | inhibition at 10 µM [2]: 100% | IC50 [3]: 437 ± 42 nM | MIC [4]: > 64 µg/mL | MIC [5]: > 128 µg/mL | MIC [6]: > 64 µg/mL | MIC [7]: > 64 µg/mL | Kd [8]: 435 ± 46 nM

CC(C)OC(=O)c1cccc(NS(=O)(=O)c2cccnc2Nc2ccc(Cl)cc2Cl)c1 [8r]
inhibition at 10 µM [9]: 37% | MIC [4]: 64 µg/mL (≈ 133 µM) | MIC [5]: 32 µg/mL (≈ 66.6 µM) | MIC [6]: 32 µg/mL (≈ 66.6 µM) | MIC [7]: 32 µg/mL (≈ 66.6 µM)
